Data from US12252524B2, “GIP/GLP1 co-agonist compounds” (Eli Lilly and Company, priority 2018, dated 2025).
Numbered stars: 1 amine (or outer) side, 2 acyl side, 3 side chain; on linkers, the order of the positions; unused ones are H or OH. Square brackets hold non-standard residues; d marks the D form. Side chains are listed from the residue outwards. Peptide text beside a SMILES is read from it. * marks the point of attachment. C20 diacid = O=C(O)CCCCCCCCCCCCCCCCCCC(=O)*; C18 diacid = O=C(O)CCCCCCCCCCCCCCCCC(=O)*; γGlu = O=C(O)[C@H](CCC(=O)[*:2])N[*:1]; αMeY = C[C@](N)(Cc1ccc(O)cc1)C(=O)O; αMeL = CC(C)C[C@](C)(N)C(=O)O; Orn = NCCC[C@H](N)C(=O)O; AEEA = NCCOCCOCC(=O)O; Aib = CC(C)(N)C(=O)O

How the values were obtained:
[1] = target: T1, human GLP-1R (Homo sapiens, UniProt P43220); test: GLP-1R CHO cell β-arrestin recruitment assay; assay type: cell-based; parameters: host or cells: CHO-K1 PathHunter cells, assay-ready frozen; conditions: for EC50: CHO-K1 cells, PathHunter β-arrestin-2 recruitment, 0.1% casein, read-out: hGLP1R B-Arrestin2 Rel EC50 uM (SEM, n); for hGLP1R B-Arrestin2 % Top: normalized to GLP-1 maximum control
T1 sequence (P43220 24-463): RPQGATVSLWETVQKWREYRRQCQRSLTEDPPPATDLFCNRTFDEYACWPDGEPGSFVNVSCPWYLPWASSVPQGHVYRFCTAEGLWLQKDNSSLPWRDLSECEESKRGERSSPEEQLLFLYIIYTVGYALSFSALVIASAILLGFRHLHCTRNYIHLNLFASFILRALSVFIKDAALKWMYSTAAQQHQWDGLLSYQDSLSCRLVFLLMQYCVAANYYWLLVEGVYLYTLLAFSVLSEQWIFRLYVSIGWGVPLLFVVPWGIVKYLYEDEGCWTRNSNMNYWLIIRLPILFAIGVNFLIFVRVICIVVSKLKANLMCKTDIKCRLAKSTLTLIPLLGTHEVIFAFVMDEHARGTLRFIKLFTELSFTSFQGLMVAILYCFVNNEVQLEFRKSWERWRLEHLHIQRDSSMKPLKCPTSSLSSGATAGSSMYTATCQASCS
Method in brief: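 PathHunter CHO-K1 cells with ProLink-tagged human GLP-1R and enzyme-acceptor-tagged β-arrestin-2 treated with serially diluted peptides in assay buffer containing 0.1% hydrolyzed casein, 90 min at 37 °C.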

[2] = target: T2, gastric inhibitory peptide receptor (GIPR) (Homo sapiens, UniProt P48546); test: cAMP pharmacological functional assay in presence of casein, hGIPR; assay type: cell-based; conditions: HEK293 cells expressing hGIPR, 0.1% Casein, geometric mean; read-out: hGIPR cAMP Rel EC50 nM (SEM, n)
T2 sequence (P48546 22-466): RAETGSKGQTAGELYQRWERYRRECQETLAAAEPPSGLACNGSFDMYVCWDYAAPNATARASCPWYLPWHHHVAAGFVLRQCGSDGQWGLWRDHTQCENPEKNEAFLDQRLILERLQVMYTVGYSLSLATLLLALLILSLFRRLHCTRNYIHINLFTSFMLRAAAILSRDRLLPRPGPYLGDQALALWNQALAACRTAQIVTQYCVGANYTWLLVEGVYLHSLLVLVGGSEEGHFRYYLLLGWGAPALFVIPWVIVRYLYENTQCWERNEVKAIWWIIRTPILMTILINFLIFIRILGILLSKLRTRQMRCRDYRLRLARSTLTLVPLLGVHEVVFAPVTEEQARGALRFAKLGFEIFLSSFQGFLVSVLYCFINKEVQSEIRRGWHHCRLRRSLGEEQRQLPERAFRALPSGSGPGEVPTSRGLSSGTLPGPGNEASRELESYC

[3] = target: T1, human GLP-1R; test: GLP-1R HEK293 cell membrane [35S]GTPγS binding assay; assay type: biochemical; parameters: expressed in transfected cells; host or cells: HEK293 cells expressing human GLP-1R; membranes; conditions: HEK293 cell membranes expressing human GLP-1R, [35S]GTPγS binding; read-out: hGLP1R GTPgS Rel EC50 nM (SEM, n)
Method in brief: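 Membranes from HEK293 cells expressing the receptor incubated with peptide and […] [35S]GTPγS in HEPES pH 7.4 buffer with NaCl, MgCl2, saponin and BSA, 30 min at room temperature. Gαs-bound label captured by anti-Gαs antibody/SPA beads and counted; EC50 from four-parameter logistic fit.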

[4] = target: human GLP-1 receptor (GLP-1R) (Homo sapiens, UniProt P43220); test: cAMP pharmacological functional assay in presence of casein, hGLP-1R; assay type: cell-based; conditions: HEK293 cells expressing hGLP-1R, 0.1% Casein, geometric mean; read-out: hGLP1R cAMP Rel EC50 nM (SEM, n)
Chain of human GLP-1 receptor (GLP-1R) (P43220 24-463): as the sequence (P43220 24-463) above

Row | Structure (SMILES) | EC50 [1] [µM] | hGLP1R B-Arrestin2 % Top [1] [%] | EC50 [2] [nM] | EC50 [3] [nM] | EC50 [4] [nM]
1 | CC[C@H](C)[C@H](NC(=O)[C@H](CC(C)C)NC(=O)[C@](C)(Cc1ccc(O)cc1)NC(=O)[C@H](CCC(=O)O)NC(=O)[C@@H](NC(=O)[C@H](Cc1ccccc1)NC(=O)[C@H](C)NC(=O)C(C)(C)NC(=O)[C@H](CCC(N)=O)NC(=O)[C@H](C)NC(=O)[C@H](CCCCNC(=O)COCCOCCNC(=O)COCCOCCNC(=O)CC[C@H](NC(=O)CCCCCCCCCCCCCCCCCCC(=O)O)C(=O)O)NC(=O)[C@H](CCCN)NC(=O)[C@H](CC(=O)O)NC(=O)[C@H](CC(C)C)NC(=O)[C@](C)(CC(C)C)NC(=O)[C@@H](NC(=O)[C@H](CO)NC(=O)[C@H](Cc1ccc(O)cc1)NC(=O)[C@H](CC(=O)O)NC(=O)[C@H](CO)NC(=O)[C@@H](NC(=O)[C@H](Cc1ccccc1)NC(=O)[C@@H](NC(=O)CNC(=O)[C@H](CCC(=O)O)NC(=O)C(C)(C)NC(=O)[C@H](N)Cc1ccc(O)cc1)[C@@H](C)O)[C@@H](C)O)[C@@H](C)CC)[C@@H](C)CC)C(=O)N[C@@H](C)C(=O)NCC(=O)NCC(=O)N1CCC[C@H]1C(=O)N[C@@H](CO)C(=O)N[C@@H](CO)C(=O)NCC(=O)N[C@@H](C)C(=O)N1CCC[C@H]1C(=O)N1CCC[C@H]1C(=O)N1CCC[C@H]1C(=O)N[C@@H](CO)C(N)=O [Example 366] (H-[dY][Aib]EGTFTSDYSI[αMeL]LD[Orn]K([AEEA-AEEA-γGlu-C20 diacid])AQ[Aib]AFIE[αMeY]LIAGGPSSGAPPPS-NH2) | 0.00557 | 21.2 | 0.0889 | 0.409 | 0.366
2 | CC[C@H](C)[C@H](NC(=O)[C@H](CC(C)C)NC(=O)[C@H](Cc1ccc(O)cc1)NC(=O)[C@H](CCC(=O)O)NC(=O)[C@@H](NC(=O)[C@H](Cc1ccccc1)NC(=O)[C@H](CCC(=O)O)NC(=O)C(C)(C)NC(=O)[C@H](CCC(N)=O)NC(=O)[C@H](C)NC(=O)[C@H](CCCCNC(=O)COCCOCCNC(=O)COCCOCCNC(=O)CC[C@H](NC(=O)CCCCCCCCCCCCCCCCC(=O)O)C(=O)O)NC(=O)[C@H](CCCN)NC(=O)[C@H](CC(=O)O)NC(=O)[C@H](CC(C)C)NC(=O)[C@](C)(CC(C)C)NC(=O)[C@@H](NC(=O)[C@H](CO)NC(=O)[C@H](Cc1ccc(O)cc1)NC(=O)[C@H](CC(=O)O)NC(=O)[C@H](CO)NC(=O)[C@@H](NC(=O)[C@H](Cc1ccccc1)NC(=O)[C@@H](NC(=O)CNC(=O)[C@H](CCC(=O)O)NC(=O)C(C)(C)NC(=O)[C@H](N)Cc1ccc(O)cc1)[C@@H](C)O)[C@@H](C)O)[C@@H](C)CC)[C@@H](C)CC)C(=O)N[C@@H](C)C(=O)NCC(=O)NCC(=O)N1CCC[C@H]1C(=O)N[C@@H](CO)C(=O)N[C@@H](CO)C(=O)NCC(=O)N[C@@H](C)C(=O)N1CCC[C@H]1C(=O)N1CCC[C@H]1C(=O)N1CCC[C@H]1C(=O)N[C@@H](CO)C(N)=O [Example 368] (H-[dY][Aib]EGTFTSDYSI[αMeL]LD[Orn]K([AEEA-AEEA-γGlu-C18 diacid])AQ[Aib]EFIEYLIAGGPSSGAPPPS-NH2) | 0.0479 | 21.3 | 0.0757 | 0.495 | 0.108
3 | CC[C@H](C)[C@H](NC(=O)[C@H](CC(C)C)NC(=O)[C@H](Cc1ccc(O)cc1)NC(=O)[C@H](CCC(=O)O)NC(=O)[C@@H](NC(=O)[C@H](Cc1ccccc1)NC(=O)[C@H](CC(=O)O)NC(=O)C(C)(C)NC(=O)[C@H](CCC(N)=O)NC(=O)[C@H](C)NC(=O)[C@H](CCCCNC(=O)COCCOCCNC(=O)COCCOCCNC(=O)CC[C@H](NC(=O)CCCCCCCCCCCCCCCCCCC(=O)O)C(=O)O)NC(=O)[C@H](CCCN)NC(=O)[C@H](CC(=O)O)NC(=O)[C@H](CC(C)C)NC(=O)[C@](C)(CC(C)C)NC(=O)[C@@H](NC(=O)[C@H](CO)NC(=O)[C@H](Cc1ccc(O)cc1)NC(=O)[C@H](CC(=O)O)NC(=O)[C@H](CO)NC(=O)[C@@H](NC(=O)[C@H](Cc1ccccc1)NC(=O)[C@@H](NC(=O)CNC(=O)[C@H](CCC(=O)O)NC(=O)C(C)(C)NC(=O)[C@H](N)Cc1ccc(O)cc1)[C@@H](C)O)[C@@H](C)O)[C@@H](C)CC)[C@@H](C)CC)C(=O)N[C@@H](C)C(=O)NCC(=O)NCC(=O)N1CCC[C@H]1C(=O)N[C@@H](CO)C(=O)N[C@@H](CO)C(=O)NCC(=O)N[C@@H](C)C(=O)N1CCC[C@H]1C(=O)N1CCC[C@H]1C(=O)N1CCC[C@H]1C(=O)N[C@@H](CO)C(N)=O [Example 369] (H-[dY][Aib]EGTFTSDYSI[αMeL]LD[Orn]K([AEEA-AEEA-γGlu-C20 diacid])AQ[Aib]DFIEYLIAGGPSSGAPPPS-NH2; N-terminus assumed) | 0.0414 | 19.9 | 0.166 | 0.381 | 0.101
4 | CC[C@H](C)[C@H](NC(=O)[C@H](CC(C)C)NC(=O)[C@H](Cc1ccc(O)cc1)NC(=O)[C@H](CCC(=O)O)NC(=O)[C@@H](NC(=O)[C@H](Cc1ccccc1)NC(=O)[C@H](CCC(=O)O)NC(=O)C(C)(C)NC(=O)[C@H](CCC(N)=O)NC(=O)[C@H](C)NC(=O)[C@H](CCCCNC(=O)COCCOCCNC(=O)COCCOCCNC(=O)CC[C@H](NC(=O)CCCCCCCCCCCCCCCCCCC(=O)O)C(=O)O)NC(=O)[C@H](CCCN)NC(=O)[C@H](CC(=O)O)NC(=O)[C@H](CC(C)C)NC(=O)[C@](C)(CC(C)C)NC(=O)[C@@H](NC(=O)[C@H](CO)NC(=O)[C@H](Cc1ccc(O)cc1)NC(=O)[C@H](CC(=O)O)NC(=O)[C@H](CO)NC(=O)[C@@H](NC(=O)[C@H](Cc1ccccc1)NC(=O)[C@@H](NC(=O)CNC(=O)[C@H](CCC(=O)O)NC(=O)C(C)(C)NC(=O)[C@H](N)Cc1ccc(O)cc1)[C@@H](C)O)[C@@H](C)O)[C@@H](C)CC)[C@@H](C)CC)C(=O)N[C@@H](C)C(=O)NCC(=O)NCC(=O)N1CCC[C@H]1C(=O)N[C@@H](CO)C(=O)N[C@@H](CO)C(=O)NCC(N)=O [Example 370] (H-[dY][Aib]EGTFTSDYSI[αMeL]LD[Orn]K([AEEA-AEEA-γGlu-C20 diacid])AQ[Aib]EFIEYLIAGGPSSG-NH2) | 0.0099 | 23.0 | 0.117 | 0.428 | 0.186
5 | CC[C@H](C)[C@H](NC(=O)[C@H](CC(C)C)NC(=O)[C@H](Cc1ccc(O)cc1)NC(=O)[C@H](CCC(=O)O)NC(=O)[C@@H](NC(=O)[C@H](Cc1ccccc1)NC(=O)[C@H](CCC(=O)O)NC(=O)C(C)(C)NC(=O)[C@H](CCC(N)=O)NC(=O)[C@H](C)NC(=O)[C@H](CCCCNC(=O)COCCOCCNC(=O)CC[C@H](NC(=O)CCCCCCCCCCCCCCCCCCC(=O)O)C(=O)O)NC(=O)[C@H](CCCN)NC(=O)[C@H](CC(=O)O)NC(=O)[C@H](CC(C)C)NC(=O)[C@](C)(CC(C)C)NC(=O)[C@@H](NC(=O)[C@H](CO)NC(=O)[C@H](Cc1ccc(O)cc1)NC(=O)[C@H](CC(=O)O)NC(=O)[C@H](CO)NC(=O)[C@@H](NC(=O)[C@H](Cc1ccccc1)NC(=O)[C@@H](NC(=O)CNC(=O)[C@H](CCC(=O)O)NC(=O)C(C)(C)NC(=O)[C@H](N)Cc1ccc(O)cc1)[C@@H](C)O)[C@@H](C)O)[C@@H](C)CC)[C@@H](C)CC)C(=O)N[C@@H](C)C(=O)NCC(=O)NCC(=O)N1CCC[C@H]1C(=O)N[C@@H](CO)C(=O)N[C@@H](CO)C(=O)NCC(=O)N[C@@H](C)C(=O)N1CCC[C@H]1C(=O)N1CCC[C@H]1C(=O)N1CCC[C@H]1C(=O)N[C@@H](CO)C(N)=O [Example 371] (H-[dY][Aib]EGTFTSDYSI[αMeL]LD[Orn]K([AEEA-γGlu-C20 diacid])AQ[Aib]EFIEYLIAGGPSSGAPPPS-NH2) | 0.0142 | 21.7 | 0.135 | 0.27 | 0.132
